From PMC3639647, “Cloning, Expression, and Purification of Nucleoside Diphosphate Kinase from Acinetobacter baumannii” (Enzyme Research, 2013)

Molecular target: T1, Ndk (nucleoside diphosphate kinase) (Acinetobacter baumannii, UniProt B0VKS3)
T1 construct: E. coli BL21(DE3), Ni-NTA
T1 sequence (B0VKS3 1-143): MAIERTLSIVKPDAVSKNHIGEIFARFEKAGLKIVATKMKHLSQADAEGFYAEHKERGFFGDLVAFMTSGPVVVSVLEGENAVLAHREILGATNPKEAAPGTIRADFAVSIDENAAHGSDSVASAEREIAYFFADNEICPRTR
Assay: intrinsic tryptophan/tyrosine fluorescence quenching titration (excitation […] nm)
Type: binding
Conditions: pH 7 (neutral), 25 °C, 17 µM protein, ATP 20-100 µM

SMILES: Nc1ncnc2c1ncn2[C@@H]1O[C@H](COP(=O)(O)OP(=O)(O)OP(=O)(O)O)[C@@H](O)[C@H]1O [ATP]
- intrinsic tryptophan/tyrosine fluorescence quenching titration (excitation 280 n): Binding of the substrate ATP with the enzyme was confirmed by the quenching of fluorescence
